Test results as given in ChEMBL document CHEMBL4842340, “Development of Cagrilintide, a Long-Acting Amylin Analogue” (J Med Chem, 2021).
Converted amounts (≈) assume the structure as drawn. *1 amine or outer side, *2 acyl side, *3 side chain or, on linkers, in order; H or OH if unused. Where a SMILES comes first, the peptide text is derived from it. Bridges are numbered along the chain shown (N, C = ends). [ ]: non-standard residue; d: D form. The star is where a group is joined. X1 = O=C(NC(=O)[C@H](Cc1cnc[nH]1)N[*:1])[C@@H](Cc1cnc[nH]1)C(=O)[*:2]; C20 diacid = O=C(O)CCCCCCCCCCCCCCCCCCC(=O)*; γGlu = O=C(O)[C@H](CCC(=O)[*:2])N[*:1]; AEEA = NCCOCCOCC(=O)O

Experiments:
[1] = Agonist activity at human AMY3R (CT+RAMP3) expressed in Hollex1 cells incubated for 3 hrs by luminescence assay; assay type: cell-based; conditions: Hollex1, 3 h
[2] = Agonist activity at human calcitonin receptor expressed in BHK570 cells assessed as increase in intracellular cAMP concentration incubated for 3 hrs in absence of albumin by CRE luciferase reporter gene assay; assay type: cell-based; conditions: BHK570, 3 h
[3] = species: Homo sapiens; test: Ratio of EC50 for human calcitonin receptor expressed in BHK570 cells to EC50 for human AMY3R (CT+RAMP3) expressed in Hollex1 cells; assay type: cell-based
[4] = Agonist activity at rat AMY3R (CT+RAMP3) expressed in tk-ts13 cells assessed as increase in intracellular cAMP level incuabted for 25 mins by CRE luciferase reporter gene assay; assay type: cell-based; conditions: tk-ts13, 25 min
[5] = Agonist activity at rat calcitonin receptor expressed in BHK-13 cells assessed as increase in intracellular cAMP concentration incubated for 25 mins by CRE luciferase reporter gene assay; assay type: cell-based; conditions: BHK-13, 25 min
[6] = species: Rattus norvegicus; test: Ratio of EC50 for rat calcitonin receptor expressed in BHK-13 cells to EC50 for rat AMY3R (CT+RAMP3) expressed in tk-ts13 cells; assay type: cell-based
[7] = Solubility of the compound in lactate at pH 3 by UPLC analysis; assay type: physicochemical; conditions: lactate buffer
[8] = Solubility of the compound in lactate at pH 4 by UPLC analysis; assay type: physicochemical; conditions: lactate buffer
[9] = Solubility of the compound in lactate at pH 5 by UPLC analysis; assay type: physicochemical; conditions: lactate buffer
[10] = Solubility of the compound in bis-tris propane at pH 6 by UPLC analysis; assay type: physicochemical; conditions: bis-tris propane buffer
[11] = Solubility of the compound in bis-tris propane at pH 6.5 by UPLC analysis; assay type: physicochemical; conditions: bis-tris propane buffer
[12] = Solubility of the compound in bis-tris propane at pH 7 by UPLC analysis; assay type: physicochemical; conditions: bis-tris propane buffer
[13] = Solubility of the compound in bis-tris propane at pH 7.5 by UPLC analysis; assay type: physicochemical; conditions: bis-tris propane buffer
[14] = Solubility of the compound in bis-tris propane at pH 8 by UPLC analysis; assay type: physicochemical; conditions: bis-tris propane buffer
[15] = target: Insulin (Homo sapiens) (UniProt P01308); test: Effect on insulin (unknown origin) amyloid fibril formation assessed as lag time in glycyl-glycine buffer at pH 4 measured after 45 hrs by thioflavin-T fluorescence assay
[16] = target: Insulin (Homo sapiens) (UniProt P01308); test: Effect on insulin (unknown origin) amyloid fibril formation assessed as peptide recovery in glycyl-glycine buffer at pH 4 measured after 45 hrs by thioflavin-T fluorescence assay relative to control; design: concentration or dose not given beside the values
[17] = tested on: Rattus norvegicus; test: Reduction in food intake in Sprague-Dawley rat at 3 nmol/kg, sc administered as single dose measured upto 24 hrs relative to control; assay type: functional; design: scale not given: the % may be the effect or the level left; conditions: time hrs <=24
[18] = tested on: Rattus norvegicus; test: Reduction in food intake in Sprague-Dawley rat at 3 nmol/kg, sc administered as single dose measured after 24 to 48 hrs relative to control; assay type: functional; design: scale not given: the % may be the effect or the level left; conditions: time 24-48 hrs
[19] = Displacement of [125I]-amylin from human AMY3R (CTR+RAMP3) expressed in BHK-13 cells measured after 120 mins by scintillation proximity assay; assay type: cell-based
[20] = Displacement of [125I]-calcitonin from human calcitonin receptor expressed in tk-ts 13 cells measured after 120 mins by scintillation proximity assay; assay type: cell-based; conditions: tk-ts13
[21] = Displacement of [125I]-amylin from rat AMY3R (CTR+RAMP3) expressed in BHK-13 cells measured after 120 mins by scintillation proximity assay; assay type: cell-based
[22] = Displacement of [125I]-calcitonin from rat calcitonin receptor expressed in tk-ts 13 cells measured after 120 mins by scintillation proximity assay; assay type: cell-based; conditions: tk-ts13
[23] = species: Rattus norvegicus; test: Ratio of IC50 for displacement of [125I]-calcitonin from rat calcitonin receptor expressed in tk-ts 13 cells to IC50 for displacement of [125I]-amylin from rat AMY3R (CTR+RAMP3) expressed in BHK-13 cells; assay type: cell-based

Insulin (Homo sapiens), sequence (P01308 whole entry): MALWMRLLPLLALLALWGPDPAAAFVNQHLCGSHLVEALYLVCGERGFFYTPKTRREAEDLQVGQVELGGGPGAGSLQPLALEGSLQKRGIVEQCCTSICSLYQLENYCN

| SMILES | EC50 [1] [nM] | EC50 [2] [nM] | Ratio EC50 [3] | EC50 [4] [nM] | EC50 [5] [nM] | Ratio EC50 [6] | solubility [7] [µM] | solubility [8] [µM] | solubility [9] [µM] | solubility [10] [µM] | solubility [11] [µM] | solubility [12] [µM] | solubility [13] [µM] | solubility [14] [µM] | TIME [15] [h] | Activity [16] [%] | Activity [17] [%] | Activity [18] [%] | IC50 [19] [nM] | IC50 [20] [nM] | also measured |
| --- | --- | --- | --- | --- | --- | --- | --- | --- | --- | --- | --- | --- | --- | --- | --- | --- | --- | --- | --- | --- | --- |
| CC[C@H](C)[C@H](NC(=O)[C@@H]1CCCN1C(=O)CNC(=O)[C@H](Cc1ccccc1)NC(=O)[C@H](CC(N)=O)NC(=O)[C@H](C)NC(=O)[C@H](CO)NC(=O)[C@H](CO)NC(=O)[C@H](CCCNC(=N)N)NC(=O)[C@H](Cc1cnc[nH]1)NC(=O)[C@H](CC(C)C)NC(=O)[C@H](Cc1ccccc1)NC(=O)[C@H](CCC(=O)O)NC(=O)[C@H](C)NC(=O)[C@H](CC(C)C)NC(=O)[C@H](CCCNC(=N)N)NC(=O)[C@H](CCC(N)=O)NC(=O)[C@@H](NC(=O)[C@H](C)NC(=O)[C@@H]1CSSC[C@H](NC(=O)[C@H](CCCCN)NC(=O)[C@@H](CCCNC(=N)N)NC(=O)[C@@H](CCCNC(=N)N)NC(=O)COCCOCCNC(=O)COCCOCCNC(=O)CC[C@H](NC(=O)CCCCCCCCCCCCCCCCCCC(=O)O)C(=O)O)C(=O)N[C@@H](CC(N)=O)C(=O)N[C@@H]([C@@H](C)O)C(=O)N[C@@H](C)C(=O)N[C@@H]([C@@H](C)O)C(=O)N1)[C@@H](C)O)C(=O)N[C@@H](CC(C)C)C(=O)N1CCC[C@H]1C(=O)N1CCC[C@H]1C(=O)N[C@H](C(=O)N[C@@H](CC(N)=O)C(=O)N[C@H](C(=O)NCC(=O)N[C@@H](CO)C(=O)N[C@@H](CO)C(=O)N[C@H](C(=O)N[C@@H](Cc1ccc(O)cc1)C(N)=O)[C@@H](C)O)C(C)C)[C@@H](C)O ({C20 diacid-γGlu-AEEA-AEEA}-[dR][dR]KCNTATCATQRLAEFLHRSSANFGPILPPTNVGSSTY-NH2; disulfide 4-9) | 0.14 | 1.08 | 8 | 0.233 | 4.48 | 19 | 200 (≈ 1000 µg/mL) | 200 (≈ 1000 µg/mL) | 200 (≈ 1000 µg/mL) | 200 (≈ 1000 µg/mL) | 200 (≈ 1000 µg/mL) | 200 (≈ 1000 µg/mL) | 200 (≈ 1000 µg/mL) | 200 (≈ 1000 µg/mL) | 45 | 94 | 16 | 0 | – | – | – |
| CC[C@H](C)[C@H](NC(=O)[C@@H]1CCCN1C(=O)CNC(=O)[C@H](Cc1ccccc1)NC(=O)[C@H](CC(N)=O)NC(=O)[C@H](CC(N)=O)NC(=O)[C@H](CO)NC(=O)[C@H](CO)NC(=O)[C@H](Cc1c[nH]cn1)NC(=O)[C@H](CCCNC(=N)N)NC(=O)[C@H](CC(C)C)NC(=O)[C@H](Cc1ccccc1)NC(=O)[C@H](CCC(=O)O)NC(=O)[C@H](C)NC(=O)[C@H](CC(C)C)NC(=O)[C@H](CCCNC(=N)N)NC(=O)[C@H](CCC(N)=O)NC(=O)[C@@H](NC(=O)[C@H](C)NC(=O)[C@@H]1CSSC[C@H](NC(=O)[C@H](CCCCN)NC(=O)CC[C@H](NC(=O)CCCCCCCCCCCCCCCCCCC(=O)O)C(=O)O)C(=O)N[C@@H](CC(N)=O)C(=O)N[C@@H]([C@@H](C)O)C(=O)N[C@@H](C)C(=O)N[C@@H]([C@@H](C)O)C(=O)N1)[C@@H](C)O)C(=O)N[C@@H](CC(C)C)C(=O)N1CCC[C@H]1C(=O)N1CCC[C@H]1C(=O)N[C@H](C(=O)N[C@@H](CC(N)=O)C(=O)N[C@H](C(=O)NCC(=O)N[C@@H](CO)C(=O)N[C@@H](CC(N)=O)C(=O)N[C@H](C(=O)N[C@@H](Cc1ccc(O)cc1)C(N)=O)[C@@H](C)O)C(C)C)[C@@H](C)O ({C20 diacid-γGlu}-KCNTATCATQRLAEFLRHSSNNFGPILPPTNVGSNTY-NH2; disulfide 2-7) | 0.1 | 0.447 | 4 | – | – | 0.5 | 200 (≈ 895 µg/mL) | 200 (≈ 895 µg/mL) | – | – | – | – | – | – | 45 | 85 | 30 | 8 | 0.35 | 0.811 | IC50 [21]: 0.532 nM; IC50 [22]: 2.06 nM; Ratio IC50 [23]: 4 |
| CC[C@H](C)[C@H](NC(=O)[C@@H]1CCCN1C(=O)CNC(=O)[C@H](Cc1ccccc1)NC(=O)[C@H](CC(N)=O)NC(=O)[C@H](CC(N)=O)NC(=O)[C@H](CO)NC(=O)[C@H](CO)NC(=O)[C@H](Cc1cnc[nH]1)NC(=O)[C@H](Cc1cnc[nH]1)NC(=O)[C@H](CC(C)C)NC(=O)[C@H](Cc1ccccc1)NC(=O)[C@H](CCC(=O)O)NC(=O)[C@H](C)NC(=O)[C@H](CC(C)C)NC(=O)[C@H](CCCNC(=N)N)NC(=O)[C@H](CCC(N)=O)NC(=O)[C@@H](NC(=O)[C@H](C)NC(=O)[C@@H]1CSSC[C@H](NC(=O)[C@H](Cc2cnc[nH]2)NC(=O)[C@H](Cc2cnc[nH]2)C(=O)NC(=O)[C@H](Cc2cnc[nH]2)NC(=O)CC[C@H](NC(=O)CCCCCCCCCCCCCCCCCCC(=O)O)C(=O)O)C(=O)N[C@@H](CCCNC(=N)N)C(=O)N[C@@H]([C@@H](C)O)C(=O)N[C@@H](C)C(=O)N[C@@H]([C@@H](C)O)C(=O)N1)[C@@H](C)O)C(=O)N[C@@H](CC(C)C)C(=O)N1CCC[C@H]1C(=O)N1CCC[C@H]1C(=O)N[C@H](C(=O)N[C@@H](CC(N)=O)C(=O)N[C@H](C(=O)NCC(=O)N[C@@H](CO)C(=O)N[C@@H](CC(N)=O)C(=O)N[C@H](C(=O)N[C@@H](Cc1ccc(O)cc1)C(N)=O)[C@@H](C)O)C(C)C)[C@@H](C)O ({C20 diacid-γGlu}-[X1]HCRTATCATQRLAEFLHHSSNNFGPILPPTNVGSNTY-NH2; disulfide 3-8) | 0.096 | 0.157 | 2 | 0.261 | 1.29 | 5 | 200 (≈ 962 µg/mL) | 200 (≈ 962 µg/mL) | 200 (≈ 962 µg/mL) | 200 (≈ 962 µg/mL) | 57 (≈ 274 µg/mL) | 2 (≈ 9.62 µg/mL) | 1 (≈ 4.81 µg/mL) | 3 (≈ 14.4 µg/mL) | 3 | 14 | 26 | 5 | – | – | – |
| CC[C@H](C)[C@H](NC(=O)[C@H](CCC(=O)O)NC(=O)CNC(=O)[C@H](Cc1ccccc1)NC(=O)[C@H](CC(N)=O)NC(=O)[C@H](CC(N)=O)NC(=O)[C@H](CO)NC(=O)[C@H](CO)NC(=O)[C@H](CCCNC(=N)N)NC(=O)[C@H](Cc1cnc[nH]1)NC(=O)[C@H](CC(C)C)NC(=O)[C@H](Cc1ccccc1)NC(=O)[C@H](CCC(=O)O)NC(=O)[C@H](C)NC(=O)[C@H](CC(C)C)NC(=O)[C@H](CCCNC(=N)N)NC(=O)[C@H](CCC(N)=O)NC(=O)[C@@H](NC(=O)[C@H](C)NC(=O)[C@@H]1CSSC[C@H](NC(=O)[C@H](Cc2cnc[nH]2)NC(=O)CC[C@H](NC(=O)CCCCCCCCCCCCCCCCCCC(=O)O)C(=O)O)C(=O)N[C@@H](CC(N)=O)C(=O)N[C@@H]([C@@H](C)O)C(=O)N[C@@H](C)C(=O)N[C@@H]([C@@H](C)O)C(=O)N1)[C@@H](C)O)C(=O)N[C@@H](CC(C)C)C(=O)N[C@@H](CO)C(=O)N[C@@H](CCCNC(=N)N)C(=O)N[C@H](C(=O)N[C@@H](CC(N)=O)C(=O)N[C@H](C(=O)NCC(=O)N[C@@H](CO)C(=O)N[C@@H](CC(N)=O)C(=O)N[C@H](C(=O)N[C@@H](Cc1ccc(O)cc1)C(N)=O)[C@@H](C)O)C(C)C)[C@@H](C)O | 0.077 | 0.129 | – | – | – | – | 200 (≈ 913 µg/mL) | 200 (≈ 913 µg/mL) | – | – | – | – | – | – | – | – | – | – | 0.818 | 1.54 | IC50 [21]: 0.445 nM; IC50 [22]: 1.37 nM |
